From US7812025B2, “Brain/neuronal cell-protecting agent and therapeutic agent for sleep disorder” (Takeda Pharmaceutical Company Limited, priority 2005, dated 2010)

Each compound was assayed against T1, Human FAAH (Homo sapiens, UniProt O00519) (assay: Measurement of FAAH inhibitory activity (enzyme fraction from CHO-K1/human FAAH, substrate anandamide [ethanolamine 1-3H])). Conditions: 1 μM test compound; 25 nM anandamide [ethanolamine 1-3H]; 60 ng enzyme fraction; 37° C. for 30 minutes; pH 9.0; read-out: Human FAAH Inhibition Rate at 1 μM (%).
T1 construct: made in house; 10000 g pellet suspended in M-PER
T1 sequence (O00519 1-579): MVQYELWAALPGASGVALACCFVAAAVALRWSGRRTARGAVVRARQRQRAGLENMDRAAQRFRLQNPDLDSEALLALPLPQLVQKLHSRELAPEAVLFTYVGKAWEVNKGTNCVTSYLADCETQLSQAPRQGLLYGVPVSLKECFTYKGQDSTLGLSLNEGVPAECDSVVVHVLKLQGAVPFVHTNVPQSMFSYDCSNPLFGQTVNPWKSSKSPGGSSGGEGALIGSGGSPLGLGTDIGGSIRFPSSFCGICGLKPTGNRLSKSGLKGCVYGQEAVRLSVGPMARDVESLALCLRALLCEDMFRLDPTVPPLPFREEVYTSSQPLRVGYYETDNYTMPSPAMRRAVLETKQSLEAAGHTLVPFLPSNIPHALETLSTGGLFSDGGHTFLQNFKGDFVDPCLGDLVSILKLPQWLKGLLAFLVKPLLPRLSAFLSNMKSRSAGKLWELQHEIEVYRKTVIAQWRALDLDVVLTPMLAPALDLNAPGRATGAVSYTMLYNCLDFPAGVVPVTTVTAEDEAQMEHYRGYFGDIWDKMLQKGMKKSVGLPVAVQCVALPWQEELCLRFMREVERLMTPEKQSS
Format: biochemical
Experimental: Measurement of FAAH Inhibitory Activity
(1) Preparation of Enzyme Fraction
The FAAH gene was cloned by PCR. That is, a human brain library was used as a cDNA library, 5′-[…]-3′ [SEQ ID NO:1] and 5′-[…]-3′ [SEQ ID NO:2] were used as a primer set, and KOD DNA polymerase (Toyobo Co., Ltd.) was used as a DNA polymerase. One cycle of the reaction comprises 95° C. for 30 sec, 55° C. for 30 sec and 72° C. for 2 min, and 45 cycles of the reaction was carried out to obtain an amplified fragment. The amplified fragment was cleaved with restriction enzymes EcoRI and SalI, and then was inserted into a pMSRα vector which had been cleaved with the same restriction enzymes EcoRI and SalI to obtain a pMSRα-human FAAH. A cell line CHO-K1 and the above-obtained plasmid were subjected to a method known per se to prepare the cell line CHO-K1/human FAAH in which human FAAH was stably expressed. The CHO-K1/human FAAH was cultured in a CO2 incubator at 37° C., using a medium (Ham's F-12 medium supplemented with final concentration 10% of fetal bovine serum (FBS) and final concentration 800 μg/ml of G418), and then the cells were harvested. After washing with PBS, the cells were suspended in a buffer (10 mM Tris, 1 mM EDTA and 10 mM MgCl2, all at final concentrations) and disrupted with a Polytron homogenizer. After centrifugation at 900 g, the supernatant was recovered and further centrifuged at 10000 g. A pellet obtained therefrom was suspended in M-PER (Catalog No. 78501; PIERCE) to give an enzyme fraction.
Using a white walled 96-well plate (Coster Corp.), the test compound at various concentrations, 60 ng of the enzyme fraction and the substrate anandamide [ethanolamine 1-^3H] (final concentration 25 nM) were reacted in 50 μl of a reaction buffer (125 mM Tris-HCl (pH 9.0), 1 mM EDTA, 0.4 mM HEPES, 0.2% glycerol and 0.02% Triton X-100, all at final concentrations) at 37° C. for 30 minutes. The reaction mixture was transferred to a 96-well MultiScreen-HA filter plate (Millipore Corp.) and then was left to stand overnight at room temperature in order to allow the unreacted substrate to be adsorbed on the filter. The plate was washed with PBS using a MultiScreen Vacuum Manifold (Millipore Corp.) and dried. To each well, 50 μl of liquid scintillation cocktail was added and stirred, and then counting was performed with a TopCount (Perkin-Elmer Corp.). The count of a sample containing a solvent instead of the test compound was taken as 0%, and the count at zero time was taken as 100%, to calculate the inhibitory activity of the compound.

SMILES | inhibition at 1 µM [%]
O=C(Nc1cccnc1)N1CCN(c2cc(-c3ccccc3)ccn2)CC1 [Example 4, 4-(4-Phenylpyridin-2-yl)-N-pyridin-3-ylpiperazine-1-carboxamide] | 74
O=C(Nc1cccnc1)N1CCN(c2ccc(-c3ccccc3)cn2)CC1 [Example 8, 4-(5-Phenylpyridin-2-yl)-N-pyridin-3-ylpiperazine-1-carboxamide] | 98
Cc1noc(NC(=O)N2CCN(c3cc(-c4ccccc4)ccn3)CC2)c1C [Example 5, N-(3,4-Dimethylisoxazol-5-yl)-4-(4-phenylpyridin-2-yl)piperazine-1-carboxamide] | 94
O=C(Nc1cccnc1)N1CCN(c2cccc(-c3ccccc3)c2)CC1 [Example 1, 4-Biphenyl-3-yl-N-pyridin-3-ylpiperazine-1-carboxamide] | 103
Cc1noc(NC(=O)N2CCN(c3cccc(-c4ccccc4)c3)CC2)c1C [Example 2, 4-Biphenyl-3-yl-N-(3,4-dimethylisoxazol-5-yl)piperazine-1-carboxamide] | 104
O=C(Nc1cccnn1)N1CCN(c2cc(-c3ccccc3)ccn2)CC1 [Example 6, 4-(4-Phenylpyridin-2-yl)-N-pyridazin-3-ylpiperazine-1-carboxamide] | 91
CC(=O)Nc1ccc(NC(=O)N2CCN(c3cccc(-c4ccccc4)c3)CC2)cn1 [Example 3, N-[6-(Acetylamino)pyridin-3-yl]-4-biphenyl-3-ylpiperazine-1-carboxamide] | 101
Cc1noc(NC(=O)N2CCN(c3ccc(-c4ccccc4)cn3)CC2)c1C [Example 7, N-(3,4-Dimethylisoxazol-5-yl)-4-(5-phenylpyridin-2-yl)piperazine-1-carboxamide] | 102

Further lines, results first:

inhibition at 1 µM [%] | SMILES
102 | Cc1noc(NC(=O)N2CCN(c3ccc(-c4ccccc4)cc3)CC2)c1C [Example 15, 4-Biphenyl-4-yl-N-(3,4-dimethylisoxazol-5-yl)piperazine-1-carboxamide]
105 | O=C(Nc1cccnn1)N1CCN(c2cccc(-c3ccccc3)c2)CC1 [Example 9, 4-Biphenyl-3-yl-N-pyridazin-3-ylpiperazine-1-carboxamide]
101 | O=C(Nc1cccnc1)N1CCN(c2ccc(-c3ccccc3)cc2)CC1 [Example 14, 4-Biphenyl-4-yl-N-pyridin-3-ylpiperazine-1-carboxamide]
108 | CC(=O)Nc1ccc(NC(=O)N2CCN(c3cccc(-c4ccsc4)c3)CC2)cc1 [Example 10, N-[4-(Acetylamino)phenyl]-4-[3-(3-thienyl)phenyl]piperazine-1-carboxamide]
104 | O=C(Nc1cccnc1)N1CCN(c2cccc(-c3ccsc3)c2)CC1 [Example 12, N-Pyridin-3-yl-4-[3-(3-thienyl)phenyl]piperazine-1-carboxamide]
104 | O=C(Nc1cccnc1)N1CCN(c2cccc(-c3ccoc3)c2)CC1 [Example 13, 4-[3-(3-Furyl)phenyl]-N-pyridin-3-ylpiperazine-1-carboxamide]
100 | Cc1noc(NC(=O)N2CCN(c3cccc(-c4ccsc4)c3)CC2)c1C [Example 11, N-(3,4-Dimethylisoxazol-5-yl)-4-[3-(3-thienyl)phenyl]piperazine-1-carboxamide]
